ChEMBL document CHEMBL5375968, “Peptide TK-HR from the Skin of Chinese Folk Medicine Frog Hoplobatrachus Rugulosus Accelerates Wound Healing via the Activation of the Neurokinin-1 Receptor” (J Med Chem, 2023)
Calls of active or inactive are those of the source. No cut-off for these calls is given here.

Assays:
[1] = Induction of TGF-beta1 level in Aprepitant-treated mouse RAW264.7 cells at 10 uM incubated for 24 hrs by ELISA; format: functional
Mus musculus [2] = organism: Mus musculus; assay: Induction of wound healing in BALB/c mouse model of full-thickness wounds assessed as increase in IL-10 level in wound skin at 50 ug/ml, TOP bid measured after 4 days by ELISA; format: functional; conditions: dose 50.0 µg/ml, time 4.0 day
Neutrophil = assay: Induction of cell migration in Aprepitant-treated BALB/c mouse neutrophils at 5 to 40 uM incubated for 8 hrs by transwell migration assay; format: functional, cell-based; conditions: dose 5-40 µM
HUVEC [3] = assay: Induction of cell migration in Aprepitant-treated HUVEC cells assessed as healing rate at 20 uM measured after 24 hrs by scratch healing assay (reference value: 30.2 %); format: functional, Homo sapiens
[4] = Induction of wound healing in BALB/c mouse model of full-thickness wounds assessed as increase in collagen deposition in wound sites at 50 to 200 ug/ml, TOP bid measured after 8 days by Masson's Trichome staining based analysis relative to control; format: functional; conditions: dose 50-200 µg/ml, time 8 day, at 50 to 200 µg/mL
Mus musculus [5] = organism: Mus musculus; assay: Induction of wound healing in BALB/c mouse model of full-thickness wounds assessed as reduction in epidermal cells in wound skin at 50 ug/ml, TOP bid measured after 4 days by IHC analysis; format: functional, cell-based; conditions: dose 50.0 µg/ml, time 4.0 day
Aorta [6] = assay: Ex vivo angiogenic activity in C57BL/6 mouse aortic ring assessed as increase in sprouting by measuring vessel outgrowth area at 5 uM measured for 7 days by microscopic analysis relative to control; format: functional; conditions: time 7 day
HUVEC [7] = assay: Angiogenic activity in HUVEC cells assessed as increase in tube formation at 10 uM measured for 4 hrs by microscopic analysis relative to control; format: functional, Homo sapiens
[8] = Induction of wound healing in BALB/c mouse model of full-thickness wounds at 50 ug/ml, TOP bid pretreated with Aprepitant for 2 hrs followed by compound administration measured after 6 days (reference value: 69.3 %); format: functional; conditions: dose 50 µg/ml, time 6 day
Aorta [9] = assay: Ex vivo angiogenic activity in C57BL/6 mouse aortic ring assessed as increase in sprouting by measuring vessel outgrowth area at 10 uM measured for 7 days by microscopic analysis relative to control; format: functional; conditions: time 7 day
Mus musculus [10] = organism: Mus musculus; assay: Induction of wound healing in BALB/c mouse model of full-thickness wounds assessed as […] in IL-10 level in wound skin at 50 ug/ml, TOP bid measured after 2 days by ELISA; format: functional; conditions: dose 50.0 µg/ml, time 2.0 day
Mus musculus [11] = organism: Mus musculus; assay: Induction of wound healing in BALB/c mouse model of full-thickness wounds assessed as increase in epidermal layer re-constuction at 50 ug/ml, TOP bid measured after 8 days by H and E staining based analysis; format: functional; conditions: dose 50.0 µg/ml, time 8.0 day
[12] = Induction of wound healing in BALB/c mouse model of full-thickness wounds at 100 ug/ml, TOP bid measured after 8 days (reference value: 81.0 %); format: functional; conditions: dose 100 µg/ml, time 8 day
RAW264.7 [13] = assay: Effect on total Smad2 level in mouse RAW264.7 cells at 2.5 to 20 uM incubated for 4 hrs by Western blot analysis; format: functional, cell-based; conditions: dose 2.5-20 µM
RAW264.7 [14] = assay: Upregulation of phosphorylated Smad3 level in mouse RAW264.7 cells at 2.5 to 20 uM incubated for 4 hrs by Western blot analysis; format: functional, cell-based; conditions: dose 2.5-20 µM
RAW264.7 [15] = assay: Upregulation of phosphorylated p38 level in Aprepitant-treated mouse RAW264.7 cells at 2.5 to 20 uM incubated for 4 hrs by Western blot analysis; format: functional, cell-based; conditions: dose 2.5-20 µM
HaCaT [16] = assay: Induction of cell migration in human HaCaT cells assessed as healing rate at 20 uM measured after 24 hrs by scratch healing assay (reference value: 36.8 %); format: functional
Aorta [17] = assay: Ex vivo angiogenic activity in Aprepitant-treated C57BL/6 mouse aortic ring assessed as sprouting by measuring vessel outgrowth area at 20 uM measured for 7 days by microscopic analysis (reference value: 117.3 %); format: functional; conditions: time 7 day
RAW264.7 [18] = assay: Induction of cell migration in Aprepitant-treated mouse RAW264.7 cells at 5 to 20 uM incubated for 24 hrs by crystal violet staining based microscopy; format: functional; conditions: dose 5-20 µM
HaCaT [19] = assay: Induction of cell migration in human HaCaT cells assessed as formation of filopodia extensions at 20 uM measured after 24 hrs by immunofluorescence microscopy; format: functional, cell-based
[20] = Induction of wound healing in BALB/c mouse model of full-thickness wounds at 100 ug/ml, TOP bid measured after 4 days (reference value: 48.6 %); format: functional; conditions: dose 100 µg/ml, time 4 day
Mus musculus [21] = organism: Mus musculus; assay: Induction of wound healing in BALB/c mouse model of full-thickness wounds assessed as increase in phosphorylated Smad3 level in wound skin at 50 to 200 ug/ml, TOP bid measured after 4 days by Western blot analysis; format: functional; conditions: dose 50-200 µg/ml, time 4.0 day
Aorta [22] = assay: Ex vivo angiogenic activity in C57BL/6 mouse aortic ring assessed as increase in sprouting by measuring vessel outgrowth area at 20 uM measured for 7 days by microscopic analysis relative to control; format: functional; conditions: time 7 day
Mus musculus [23] = organism: Mus musculus; assay: Induction of wound healing in BALB/c mouse model of full-thickness wounds assessed as increase in granulation tissue formation at 50 ug/ml, TOP bid measured after 8 days by H and E staining based analysis; format: functional; conditions: dose 50.0 µg/ml, time 8.0 day
Mus musculus [24] = organism: Mus musculus; assay: Induction of wound healing in BALB/c mouse model of full-thickness wounds assessed as increase in ratio of phosphorylated Smad3 level to total Smad3 level in wound skin at 50 to 200 ug/ml, TOP bid measured after 8 days by Western blot analysis; format: functional; conditions: dose 50-200 µg/ml, time 8.0 day
[25] = Induction of TGF-beta1 level in Aprepitant-treated mouse RAW264.7 cells at 20 uM incubated for 24 hrs by ELISA; format: functional
[26] = Toxicity in BALB/c mouse model of full-thickness wounds assessed as inflammatory foci in liver at 200 ug/ml, TOP bid measured upto 8 days by H and E staining based analysis; format: tissue-based; conditions: in vivo, topical_or_ocular, 192 h, dose 200 µg/ml, time < 8 day
RAW264.7 [27] = assay: Induction of phagocytosis in mouse RAW264.7 cells cultured with Escherichia coli ATCC 25922 assessed as number of engulfed bacteria at 20 uM incubated for 24 hrs followed by bacterial exposure measured after 1 hr by plate counting method (reference value: 225); format: functional; conditions: time 25 hrs
[28] = Toxicity in BALB/c mouse model of full-thickness wounds assessed as adverse effect on body weight at 50 to 200 ug/ml, TOP bid measured upto 8 days; conditions: in vivo, topical_or_ocular, 192 h, dose 50-200 µg/ml, time < 8 day
RAW264.7 [29] = assay: Upregulation of phosphorylated Smad3 level in Aprepitant-treated mouse RAW264.7 cells at 2.5 to 20 uM incubated for 4 hrs by Western blot analysis; format: functional, cell-based; conditions: dose 2.5-20 µM
RAW264.7 [30] = assay: Induction of MCP-1 expression in mouse RAW264.7 cells incubated for 24 hrs by ELISA; format: functional, cell-based; conditions: dose 2.5-20 µM

Q: Which Activity [1] does the source give for H-KPNPDRFYGLM-NH2 here?
A: 43.7 pg/mL

Q: What about the Activity (Mus musculus [2]) of the same substance?
A: Active

Q: What about the Activity (Neutrophil) of the same substance?
A: inactive

Q: And the Activity (HUVEC [3])?
A: 35.9%

Q: What about the Activity [4] of the same substance?
A: 197%

Q: What about the Activity (Mus musculus [5]) of the same substance?
A: Active

Q: What about the Activity (Aorta [6]) of the same substance?
A: 77.6%

Q: And the Activity (HUVEC [7])?
A: 139.5%

Q: What about the Activity [8] of the same substance?
A: 69.4%

Q: And the Activity (Aorta [9])?
A: 117.3%

Q: And the Activity (Mus musculus [10])?
A: Active

Q: And the Activity (Mus musculus [11])?
A: Active

Q: And the Activity [12]?
A: 100%

Q: And the Activity (RAW264.7 [13])?
A: inactive

Q: What about the Activity (RAW264.7 [14]) of the same substance?
A: Active

Q: And the Activity (RAW264.7 [15])?
A: inactive

Q: What about the Activity (HaCaT [16]) of the same substance?
A: 72.1%

Q: And the Activity (Aorta [17])?
A: 40%

Q: What about the Activity (RAW264.7 [18]) of the same substance?
A: inactive

Q: What about the Activity (HaCaT [19]) of the same substance?
A: Active

Q: What about the Activity [20] of the same substance?
A: 70.9%

Q: What about the Activity (Mus musculus [21]) of the same substance?
A: Active

Q: What about the Activity (Aorta [22]) of the same substance?
A: 193.8%

Q: What about the Activity (Mus musculus [23]) of the same substance?
A: Active

Q: What about the Activity (Mus musculus [24]) of the same substance?
A: inactive

Q: What about the Activity [25] of the same substance?
A: 46.7 pg/mL

Q: What about the Activity [26] of the same substance?
A: Non-Toxic

Q: And the Activity (RAW264.7 [27])?
A: 350

Q: And the Activity [28]?
A: Non-Toxic

Q: What about the Activity (RAW264.7 [29]) of the same substance?
A: inactive

Q: What about the Activity (RAW264.7 [30]) of the same substance?
A: Dose-Dependent Effect
